Assay results: patent publication US8314240B2, “Sulfonamide compounds or salts thereof” (Astellas Pharma Inc., priority 2008, dated 2012)
pIC50: −log10 of the molar value.

Key:
[1] = target: T1, rat EP1 receptor (Rattus norvegicus, UniProt P70597); assay: Test to measure receptor antagonistic activity using EP1 receptor-expressing cells (PGE2-induced intracellular Ca change, FLIPR); assay type: cell-based; conditions: HEK293 cells stably expressing rat EP1 receptor, 100 nM PGE2
T1 construct: expressed in transfected cells
T1 sequence (P70597 1-405): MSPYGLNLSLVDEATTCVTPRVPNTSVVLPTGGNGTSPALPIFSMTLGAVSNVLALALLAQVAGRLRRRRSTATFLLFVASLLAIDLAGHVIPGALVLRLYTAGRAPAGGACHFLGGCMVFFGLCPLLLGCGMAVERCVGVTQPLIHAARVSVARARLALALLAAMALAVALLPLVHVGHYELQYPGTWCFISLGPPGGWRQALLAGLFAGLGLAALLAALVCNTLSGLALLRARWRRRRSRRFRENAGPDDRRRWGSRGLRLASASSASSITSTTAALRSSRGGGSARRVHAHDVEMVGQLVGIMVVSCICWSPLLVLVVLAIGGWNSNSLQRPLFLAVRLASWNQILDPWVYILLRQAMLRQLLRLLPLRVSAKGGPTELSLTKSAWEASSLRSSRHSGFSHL
Experimental: Test Example 1 Test to Measure Receptor Antagonistic Activity Using EP1 Receptor-Expressing Cells
HEK293 cells (American Type Culture Collection) that stably expressed rat EP1 receptor were dispensed onto a 96-well poly-D-lysine-coated plate (product name: BIOCOAT, PDL96W black/clear, by Nippon Becton Dickinson) at 2×10^4 cells/well on the day before the experiment, and incubated overnight at 37° C. under 5% carbon dioxide (CO2) in a culture medium containing 10% fetal bovine serum (FBS) (product name: DMEM, Invitrogen). The culture medium was replaced with a loading buffer (a washing solution containing 4 μM of fluorescent-labeled indicator (product name: Fluo3-AM, Dojindo): Hank's balanced salt solution (HBSS), 20 mM 2-[4-(2-hydroxyethyl)-1-piperazinyl]ethanesulfonic acid (HEPES)-sodium hydroxide (NaOH), 2.5 mM Probenecid, and 0.1% bovine serum albumin (BSA)), and left to stand at room temperature for 3 hours, and the cells were washed using a plate washer (product name: ELx405, Bio-Tek Instruments, Inc.) in which the washing solution had been set up. The compound that had been preliminarily dissolved and diluted in the washing solution was added thereto, and set up in a system for measuring the intracellular calcium (Ca) concentration (product name: FLIPR, Molecular Devices, Inc.). After 5 minutes, PGE2 was added to a final concentration of 100 nM, and the change in intracellular Ca concentration was measured. The difference between a maximum value and a minimum value in the intracellular Ca concentration change was determined, and retained as measurement data. When a response with addition of 100 nM PGE2 was taken as 0% and a response with addition of a buffer was taken as 100%, the concentration causing 50% inhibition was determined as an IC50 value. Further, in the table, Ex represents Example numbers as described later.

[2] = target: T2, CYP3A4 (Homo sapiens, UniProt P08684); assay: Cytochrome P450 (CYP) 3A4 enzyme inhibition, Inhibition Test I; assay type: in vitro ADME; conditions: human liver microsomes, probe midazolam; human liver microsome 0.1 mg protein/ml, substrate midazolam, 37° C. 20 minutes; read-out: Inhibitory activity I (%)
T2 construct: human liver microsome (0.1 mg protein/ml); from tissue; host or cells: human liver microsome
T2 sequence (P08684 whole entry): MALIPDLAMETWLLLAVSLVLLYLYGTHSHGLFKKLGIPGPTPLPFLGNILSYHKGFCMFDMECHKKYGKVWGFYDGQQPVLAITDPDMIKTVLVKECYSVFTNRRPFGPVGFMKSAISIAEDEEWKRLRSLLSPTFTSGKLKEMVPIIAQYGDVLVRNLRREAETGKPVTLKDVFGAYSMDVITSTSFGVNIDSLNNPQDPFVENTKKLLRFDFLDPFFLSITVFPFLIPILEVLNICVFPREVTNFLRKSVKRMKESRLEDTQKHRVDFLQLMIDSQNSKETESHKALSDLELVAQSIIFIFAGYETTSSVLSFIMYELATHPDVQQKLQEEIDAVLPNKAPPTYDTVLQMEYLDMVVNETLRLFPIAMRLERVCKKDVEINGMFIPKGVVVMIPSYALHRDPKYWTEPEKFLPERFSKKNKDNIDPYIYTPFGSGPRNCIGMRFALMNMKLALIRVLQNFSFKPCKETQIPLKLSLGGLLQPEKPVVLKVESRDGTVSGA
Experimental: (§1) Test Example 4 Test on Cytochrome P450 (CYP) 3A4 Enzyme Inhibition (Evaluation of Drug Interaction)
(1) Inhibition Test I (Calculation of Inhibitory Activity I)
Using a 96-well plate, a substrate (midazolam), a test compound and human liver microsome (0.1 mg protein/ml) were incubated at 37° C. for 20 minutes in a 100 mM phosphate buffer containing 0.1 mM EDTA and 1 mM NADPH. Then, the reaction was stopped by adding an aqueous solution containing 80% acetonitrile. Thereafter, each sample was analyzed by LC/MS, and the inhibitory activity I was calculated using the following formula. Inhibitory Activity I(%)=100−Vi.I/V0.I×100
Vi,I: Metabolic rate of substrate in the presence of the test compound at a known concentration in the inhibition test I
V0,I: Metabolic rate of substrate in the absence of the test compound in the inhibition test I

[3] = Test on metabolic stability in human liver microsome; assay type: in vitro ADME; conditions: human liver microsomes, pH 7.4; human liver microsome 0.2 mg protein/ml, 37° C. 15 minutes, in vitro clearance by integration plot
Experimental: Test Example 5 Test on Metabolic Stability in Human Liver Microsome
Using a glass test tube, a test compound and human liver microsome (0.2 mg protein/ml) were incubated at 37° C. for 15 minutes in a 100 mM phosphate buffer (pH=7.4) containing 0.1 mM EDTA and 1 mM NADPH. Thereafter, the reaction was stopped by adding an aqueous solution containing 80% acetonitrile. Thereafter, each sample was analyzed by HPLC and the in vitro clearance (CLint) was calculated by an integration plot.

[4] = target: T2, CYP3A4; assay: Cytochrome P450 (CYP) 3A4 enzyme inhibition, Inhibition Test II (preincubation); assay type: in vitro ADME; conditions: human liver microsomes, pH 7.4, probe midazolam; human liver microsome 0.1 mg protein/ml, 30 minutes preincubation with test compound, then midazolam 20 minutes; read-out: Inhibitory activity II (%)
Experimental: as §1
(2) Inhibition Test II (Calculation of Inhibitory Activity II)
Using a 96-well plate, a test compound and human liver microsome (0.1 mg protein/ml) were incubated at 37° C. for 30 minutes in a total amount of 145 μl of 100 mM phosphate buffer (pH=7.4) containing 0.1 mM EDTA and 1 mM NADPH. Then, midazolam as the substrate was added thereto and incubated at 37° C. for 20 minutes. After the incubation, the reaction was stopped by adding an aqueous solution containing 80% acetonitrile. Thereafter, each sample was analyzed by LC/MS, and the inhibitory activity II was calculated using the following formula. Inhibitory Activity II(%)=100−Vi,II/V0,II/(100-inhibitory activity I(%))×100×100
Vi,II: Metabolic rate of substrate in the presence of the test compound at a known concentration in the inhibition test II
V0,II: Metabolic rate of substrate in the absence of the test compound in the inhibition test II

SMILES	pIC50 [1]	inhibition at 20 min [2]	CLint scaled [3]	inhibition at 20 min [4]
C[C@H](F)CN(c1cc2c(cc1OCc1ccc(C(=O)O)cc1)CCC2)S(=O)(=O)c1cccnc1 [Example 103]	9.40	12%	228 mL/min/kg	7%
Cc1csc(S(=O)(=O)N(CC(C)F)c2cc3c(cc2OCc2ccc(C(=O)O)s2)CCC3)n1 (stereo not shown) [Example 80]	9.07	–	212 mL/min/kg	–
Cc1csc(S(=O)(=O)N(C[C@H](C)F)c2cc3c(cc2OCc2ccc(C(=O)O)c(F)c2)CCC3)n1 [Example 113]	9.05	–	–	–
Cc1cc(OCc2ccc(C(=O)O)cc2)c(N(C[C@@H](C)CF)S(=O)(=O)c2ccccn2)cc1C [Example 117]	8.72	3%	58 mL/min/kg	5%
Cc1csc(S(=O)(=O)N(CC(C)F)c2cc(C)c(Cl)cc2OCc2ccc(C(=O)O)cc2)n1 (stereo not shown) [Example 71]	9.49	–	153 mL/min/kg	–
Cc1cc(C(=O)O)ccc1COc1cc2c(cc1N(CC(C)F)S(=O)(=O)c1cc(F)cc(F)c1)CCC2 (stereo not shown) [Example 63]	9.52	–	–	–
Cc1csc(S(=O)(=O)N(CC(C)F)c2cc3c(cc2OCc2ccc(C(=O)O)cc2C)CCC3)n1 (stereo not shown) [Example 66]	9.28	–	–	–
C[C@@H](F)CN(c1cc2c(cc1OCc1ccc(C(=O)O)cc1)CCC2)S(=O)(=O)c1ccccn1 [Example 102]	8.74	1%	244 mL/min/kg	0%
